A value given as a limit tells only on which side of the number the result lay.

The target of the first assay is T1, Human Glucocorticoid Receptor (hGR) (Homo sapiens, UniProt P04150).
T1 construct: the resultant supernatant (=cytosol of IM9 cells) was centrifuged at 103,000 g for 60 minutes; host or cells: IM9 human lymphoblast cell line (cytosol fraction)
T1 sequence (P04150 1-777): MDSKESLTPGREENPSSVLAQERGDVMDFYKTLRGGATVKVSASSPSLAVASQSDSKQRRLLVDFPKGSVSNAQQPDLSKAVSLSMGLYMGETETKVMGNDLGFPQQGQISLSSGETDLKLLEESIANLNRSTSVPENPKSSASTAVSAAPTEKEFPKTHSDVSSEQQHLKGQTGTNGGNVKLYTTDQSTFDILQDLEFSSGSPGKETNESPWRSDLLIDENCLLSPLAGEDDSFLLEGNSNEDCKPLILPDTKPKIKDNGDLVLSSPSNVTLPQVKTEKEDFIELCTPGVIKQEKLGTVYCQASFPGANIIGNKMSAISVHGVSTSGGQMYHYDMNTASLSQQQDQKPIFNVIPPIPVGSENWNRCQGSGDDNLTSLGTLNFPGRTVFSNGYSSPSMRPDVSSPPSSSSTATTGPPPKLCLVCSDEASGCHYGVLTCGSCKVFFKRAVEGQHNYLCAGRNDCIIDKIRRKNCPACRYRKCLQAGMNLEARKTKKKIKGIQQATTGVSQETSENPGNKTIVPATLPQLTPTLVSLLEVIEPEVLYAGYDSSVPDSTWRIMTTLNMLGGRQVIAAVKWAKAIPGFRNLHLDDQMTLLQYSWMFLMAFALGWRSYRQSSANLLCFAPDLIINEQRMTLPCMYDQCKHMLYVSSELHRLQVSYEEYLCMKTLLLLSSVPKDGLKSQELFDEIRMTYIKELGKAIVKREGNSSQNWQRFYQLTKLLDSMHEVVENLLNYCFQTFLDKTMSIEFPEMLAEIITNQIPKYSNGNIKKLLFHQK
The experiment in a line: Human Glucocorticoid Receptor (hGR) Ligand-Binding Assay (competitive 3H-dexamethasone binding, IM9 cytosol). Conditions: compound at 1 μM; competition with 3H-dexamethasone; cytosol of IM9 cells; read-out: % inhibition hGR at 1 μM. The text has this:
Human Glucocorticoid Receptor (hGR) Ligand-Binding Assay
Potential selective glucocorticoid receptor modulators of this intervention can be tested for their binding affinity at the glucocorticoid receptor using the binding assay described below.
Preferably, the glucocortitcoid receptor extracted from cytosol of IM9 cells is used for competitive radioligand binding assays to calculate the IC50 values and binding affinity (Ki value) of the compounds according to the present invention. Preferably, a fixed concentration of the radioligand 3H-dexamethasone and a range of concentrations of compounds according to the present invention (as unlabeled competitors of dexamethasone) are mixed with the extracted glucocorticoid receptor in order to measure the potency/affinity with which they compete for the binding of the radioligand. Preferably, by using competition curves the IC50 which is the concentration of competing ligand that displaces 50% of the specific binding of the radioligand is determined. Finally this IC50 value is converted to a Ki value.
The human lymphoblast cell line IM9 (ATCC, Bethesda, Md.) were cultivated in RPMI 1640 media containing 10% fetal bovine serum, penicillin (100 U/ml), streptomycin (100 μg/ml), and 2 mM L-glutamine at […] and 7% CO2 in a humidified incubator. Cells were centrifuged for 10 minutes at 1500 g and were washed in PBS and repelleted. Cell were then resuspended in homogenization buffer consisting of: 10 mM TES, 10 mM sodium molybdate, 1 mM EDTA, pH 7.4, 20 mM 2-mercaptoethanol, and 10% glycerol. Disruption of the cells was performed by nitrogen cavitation using 2×15 minutes at 600 to 750 psi nitrogen in a N2 cavitator at 0° C. The cell preparation was then centrifuged at 27,000 g for 15 minutes, and the resultant supernatant (=cytosol of IM9 cells) was centrifuged at 103,000 g for 60 minutes at 4° C. The amount of protein in the supernatant fraction was determined using a BCA assay kit and aliquots were snap frozen in a dry ice-acetone bath and stored at −70° C. Competitive binding assays were done in duplicate in homogenization buffer with a total volume of 200 μl. To this end, 1 mg of IM9 cytosol, 0.05 μCi (1.5 nM) of 3H-dexamethasone […] and compounds according to the present invention (=unlabeled competitors of dexamethasone; range of concentrations) were mixed. The reaction was stopped after incubation at 0° C. for 16 to 18 hours by the addition of 100 μl of a charcoal-dextran mixture (2% activated charcoal, 0.5% dextran in 10 mM Tris, 1 mM EDTA, pH 7.4). Another incubation step at 0° C. for 10 minutes followed before the samples were centrifuged for 5 minutes at 8200 g. 100 μl of the supernatant) was finally assayed for radioactivity by liquid scintillationspectrometry, and the IC50 values were determined graphically and were converted to Ki values.
By inhibition is commonly meant the change of the read-out against control, counted positive when it falls. Turning to `Cn1cc(-n2ncc3cc(N4C(=O)C[C@H](NC(=O)C5(F)CC5)[C@H]4c4ccccc4)ccc32)ccc1=O` [Example 18, 1-fluoro-N-((2R,3S)-1-(1-(1-methyl-6-oxo-1,6-dihydropyridin-3-yl)-1H-indazol-5-yl)-5-oxo-2-phenylpyrrolidin-3-yl)cyclopropanecarboxamide], the inhibition at 1 µM was more than 85%. Same read-out and setting: next, `Cn1cc(-n2ncc3cc(N4C(=O)C[C@H](NC(=O)C(C)(F)F)C4c4ccc(F)cc4F)ccc32)ccc1=O` (stereo in doubt) [Example 2, trans-2,2-difluoro-N-(5-oxo-2-(2,4-difluorophenyl)-1-(1-(1-methyl-6-oxo-1,6-dihydropyridin-3-yl)-1H-indazol-5-yl)pyrrolidin-3-yl)propanamide]: more than 85%; `Cn1cc(-n2ncc3cc(N4C(=O)C[C@H](NC(=O)c5ncco5)[C@H]4c4ccccc4)ccc32)ccc1=O` [Example 49, N-[(2R,3S)-1-[1-(1-methyl-6-oxo-3-pyridyl)indazol-5-yl]-5-oxo-2-phenyl-pyrrolidin-3-yl]oxazole-2-carboxamide]: more than 85%; `COc1cc([C@@H]2[C@@H](NC(=O)C(C)(F)F)CC(=O)N2c2ccc3c(cnn3-c3ccc(=O)n(C)c3)c2)ccc1F` [Example 15, 2,2-difluoro-N-((2R,3S)-2-(4-fluoro-3-methoxyphenyl)-1-(1-(1-methyl-6-oxo-1,6-dihydropyridin-3-yl)-1H-indazol-5-yl)-5-oxopyrrolidin-3-yl)propanamide]: 60 to 85%. Consider `Cn1cc(-n2ncc3cc(N4C(=O)C[C@H](NC(=O)C(C)(F)F)[C@H]4c4ccccc4F)ccc32)ccc1=O` [Example 6, 2,2-difluoro-N-((2R,3S)-2-(2-fluorophenyl)-1-(1-(1-methyl-6-oxo-1,6-dihydropyridin-3-yl)-1H-indazol-5-yl)-5-oxopyrrolidin-3-yl)propanamide], for which the inhibition at 1 µM was more than 85%.

In the case of `Cn1cc(-n2ncc3cc(N4C(=O)C[C@H](NC(=O)C(C)(F)F)C4c4ccc5c(c4)OCCO5)ccc32)ccc1=O` (stereo in doubt) [Example 3, trans-2,2-difluoro-N-(5-oxo-2-(2,3-dihydrobenzo[b][1,4]dioxin-6-yl)-1-(1-(1-methyl-6-oxo-1,6-dihydropyridin-3-yl)-1H-indazol-5-yl)pyrrolidin-3-yl)propanamide], the inhibition at 1 µM is more than 85%. With `CC(F)(F)C(=O)N[C@H]1CC(=O)N(c2ccc3c(cnn3C3CCN(C(=O)C4CC4)CC3)c2)C1c1ccccc1` (stereo in doubt) [Example 35, trans-2,2-difluoro-N-(1-(1-(1-(cyclopropanecarbonyl)piperidin-4-yl)-1H-indazol-5-yl)-5-oxo-2-phenylpyrrolidin-3-yl)propanamide], the inhibition at 1 µM lay within 60 to 85%. Regarding `Cn1cc(-n2ncc3cc(N4C(=O)C[C@H](NC(=O)C(C)(F)F)[C@H]4c4cccc(F)c4)ccc32)ccc1=O` [Example 5, 2,2-difluoro-N-((2R,3S)-2-(3-fluorophenyl)-1-(1-(1-methyl-6-oxo-1,6-dihydropyridin-3-yl)-1H-indazol-5-yl)-5-oxopyrrolidin-3-yl)propanamide], the inhibition at 1 µM was more than 85%. Still for that read-out and setting: the result for `Cn1ccc(Cn2ncc3cc(N4C(=O)C[C@H](NC(=O)C(C)(F)F)C4c4ccccc4)ccc32)cc1=O` (stereo in doubt) [Example 38, trans-2,2-difluoro-N-(1-(1-((1-methyl-2-oxo-1,2-dihydropyridin-4-yl)methyl)-1H-indazol-5-yl)-5-oxo-2-phenylpyrrolidin-3-yl)propanamide] reads 60 to 85%. `Cn1ccc(Cn2ncc3cc(N4C(=O)C[C@H](NC(=O)C(C)(F)F)C4c4ccccc4)ccc32)n1` (stereo in doubt) [Example 32, trans-2,2-difluoro-N-(1-(1-((1-methyl-1H-pyrazol-3-yl)methyl)-1H-indazol-5-yl)-5-oxo-2-phenylpyrrolidin-3-yl)propanamide]: the inhibition at 1 µM lay in the range of 60 to 85%. Same read-out and setting: next, `Cc1ccccc1[C@@H]1[C@@H](NC(=O)C(C)(F)F)CC(=O)N1c1ccc2c(cnn2-c2ccc(=O)n(C)c2)c1` [Example 43, 2,2-difluoro-N-((2R,3S)-1-(1-(1-methyl-6-oxo-1,6-dihydropyridin-3-yl)-1H-indazol-5-yl)-5-oxo-2-(o-tolyl)pyrrolidin-3-yl)propanamide]: more than 85%; `COc1ccc(Cn2ncc3cc(N4C(=O)C[C@H](NC(=O)C(C)(F)F)[C@H]4c4ccccc4)ccc32)cn1` (relative stereo) [Example 33, trans-2,2-difluoro-N-(1-(1-((6-methoxypyridin-3-yl)methyl)-1H-indazol-5-yl)-5-oxo-2-phenylpyrrolidin-3-yl)propanamide]: more than 85%.

In the case of `COc1cc(Cn2ncc3cc(N4C(=O)C[C@H](NC(=O)C5CC5)C4c4ccccc4)ccc32)ccn1` (stereo in doubt) [Example 40, trans-N-(1-(1-((2-methoxypyridin-4-yl)methyl)-1H-indazol-5-yl)-5-oxo-2-phenylpyrrolidin-3-yl)cyclopropanecarboxamide], the inhibition at 1 µM was 40 to 60%. Still for that read-out and setting: the result for `COc1ccc(-n2ncc3cc(N4C(=O)C[C@H](NC(=O)C(C)(F)F)C4c4ccccc4)ccc32)cn1` (stereo in doubt) [Example 22, trans-2,2-difluoro-N-(1-(1-(6-methoxypyridin-3-yl)-1H-indazol-5-yl)-5-oxo-2-phenylpyrrolidin-3-yl)propanamide] reads 60 to 85%.

The assay is the same for the next values; noted with them: read-out: % inhibition hGR at 1 μM.
Regarding `Cc1ccc(-n2ncc3cc(N4C(=O)C[C@H](NC(=O)C(C)(F)F)C4c4ccccc4)ccc32)cn1` (stereo in doubt) [Example 24, trans-2,2-difluoro-N-(1-(1-(6-methylpyridin-3-yl)-1H-indazol-5-yl)-5-oxo-2-phenylpyrrolidin-3-yl)propanamide], the inhibition at 1 µM is 60 to 85%. As for `CC(F)(F)C(=O)N[C@H]1CC(=O)N(c2ccc3c(cnn3-c3ccncc3)c2)C1c1ccccc1` (stereo in doubt) [Example 23, trans-2,2-difluoro-N-(5-oxo-2-phenyl-1-(1-(pyridin-4-yl)-1H-indazol-5-yl)pyrrolidin-3-yl)propanamide], the inhibition at 1 µM was more than 85%. On to `Cn1cc(-n2ncc3cc(N4C(=O)C[C@H](NC(=O)C(C)(F)F)[C@H]4c4ccccc4)ccc32)ccc1=O` [Example 4, 2,2-difluoro-N-((2R,3S)-1-(1-(1-methyl-6-oxo-1,6-dihydropyridin-3-yl)-1H-indazol-5-yl)-5-oxo-2-phenylpyrrolidin-3-yl)propanamide], for which the inhibition at 1 µM was more than 85%. The same measure, in the same setting: next, `CC(F)(F)C(=O)N[C@H]1CC(=O)N(c2ccc3c(cnn3-c3ccc(F)cn3)c2)C1c1ccccc1` (stereo in doubt) [Example 9, trans-2,2-difluoro-N-(1-(1-(5-fluoropyridin-2-yl)-1H-indazol-5-yl)-5-oxo-2-phenylpyrrolidin-3-yl)propanamide]: more than 85%.

These data come from US10626106B2, “Substituted pyrrolidine amides I” (Gruenenthal GmbH, priority 2017, dated 2020).
